Results taken from patent US8546377B2 (AbbVie Inc., priority 2009, dated 2013).

Tests used:
5HT2C receptors [1] = target: T1, 5HT2C receptors (Homo sapiens, UniProt P28335); test: Human 5-HT2C functional assay in CHO-K1 cells (calcium flux, FLIPR); assay type: cell-based; design: expressed in transfected cells; host or cells: CHO-K1 cells; details: CHO-K1 cells over-expressing 5HT2C, calcium flux; read-out: EC50 (μM), 5-HT2c Agonist Activity
T1 sequence (P28335 33-458): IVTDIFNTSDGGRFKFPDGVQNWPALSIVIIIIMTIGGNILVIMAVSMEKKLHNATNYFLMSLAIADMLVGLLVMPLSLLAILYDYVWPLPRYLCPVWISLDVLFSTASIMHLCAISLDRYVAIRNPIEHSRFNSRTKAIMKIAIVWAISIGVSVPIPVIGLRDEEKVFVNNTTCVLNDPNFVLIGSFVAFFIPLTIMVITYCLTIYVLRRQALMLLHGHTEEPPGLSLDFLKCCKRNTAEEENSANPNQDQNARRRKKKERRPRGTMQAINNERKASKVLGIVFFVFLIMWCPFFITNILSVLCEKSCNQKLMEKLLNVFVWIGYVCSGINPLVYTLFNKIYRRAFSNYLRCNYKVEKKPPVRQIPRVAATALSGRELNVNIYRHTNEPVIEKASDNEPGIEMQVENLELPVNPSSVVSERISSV
Procedure, shortened: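 Frozen CHO-K1 cells over-expressing receptor, serum-starved overnight, loaded with Ca4 dye plus 2.5 mM probenecid for 60 min at room temperature. FLIPR fluorescence (ex 480/em 530 nm, 25° C) recorded 3 min after compound addition; 6-point 1:10 series from 10 μM, 0.2% DMSO. Response normalized to serotonin, 4-parameter fit gives EC50; Emax as % of serotonin.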

5HT2C receptors [2] = target: T1, 5HT2C receptors; test: Human 5-HT2C functional assay in 1321N1 cells (intracellular calcium, FLIPR); assay type: cell-based; design: expressed in transfected cells; host or cells: 1321N1 cells; details: 1321N1 cells stably transfected, maximum calcium response; read-out: EC50 (μM), 5-HT2c Agonist Activity
Procedure, shortened: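 Intracellular calcium in 1321N1 cells stably transfected with human 5-HT2C, serum-starved overnight, Fluo4 AM-loaded with 1% probenecid. Compounds at 10^−10 to 10^−5 M final, alone or with 10^−9 M serotonin; peak FLIPR response. EC50 from four-parameter logistic fit; Emax as % of serotonin effect.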

[3] = target: T2, human serotonin 5-HT2c receptor (Homo sapiens, UniProt P28335); test: Human 5-HT2C receptor radioligand binding assay (agonist site, [125I](±)DOI); details: membranes of transfected CHO cells, 0.2 nM [125I](±)DOI, 15 minutes at 37° C.
T2 construct: expressed in transfected cells; host or cells: CHO cells (membrane homogenate)
T2 sequence (P28335 33-458): T1 sequence (P28335 33-458)
Procedure, shortened: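 Affinity for the agonist site measured by radioligand binding in transfected CHO cells expressing the human receptor, using [125I](±)DOI.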

EC50 (5HT2C receptors [1]): > 10 µM
EC50 (5HT2C receptors [2]): > 10 µM
Ki [3]: 27 µM
Structure (SMILES): O=C1NCC2CNCCN2c2ccc(NS(=O)(=O)c3ccccc3)cc21 (stereo not drawn) [Example 48, N-(7-oxo-1,2,3,4,4a,5,6,7-octahydropyrazino[1,2-a][1,4]benzodiazepin-9-yl)benzenesulfonamide]
